In patent US20230148005A1, “MACROCYCLIC COMPOUNDS AND USES THEREOF” (THESEUS PHARMACEUTICALS, INC., priority 2020, published 2023):

Key:
Ba/F3 Parental = assay: Ba/F3 viability assay (CellTiter-Glo), parental; type: cell-based; conditions: Mus musculus, BaF3, anti-proliferation
Outline: (§1)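 Antiproliferative activity is assessed through a cell viability read-out, run in parallel across the mutant-EGFR-driven and parental Ba/F3 cells.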

Ba/F3 EGFR-Del19/C797S = Ba/F3 EGFR-Del19/C797S (Homo sapiens, UniProt P00533, C797S, cells depend on it, form not given); assay: Ba/F3 viability assay (CellTiter-Glo), DC; type: cell-based; conditions: anti-proliferation, read-out: BaF3 DC IC50
Sequence of Ba/F3 EGFR-Del19/C797S (P00533 with tags, fused parts or gaps DEL746-750/C797S, form open): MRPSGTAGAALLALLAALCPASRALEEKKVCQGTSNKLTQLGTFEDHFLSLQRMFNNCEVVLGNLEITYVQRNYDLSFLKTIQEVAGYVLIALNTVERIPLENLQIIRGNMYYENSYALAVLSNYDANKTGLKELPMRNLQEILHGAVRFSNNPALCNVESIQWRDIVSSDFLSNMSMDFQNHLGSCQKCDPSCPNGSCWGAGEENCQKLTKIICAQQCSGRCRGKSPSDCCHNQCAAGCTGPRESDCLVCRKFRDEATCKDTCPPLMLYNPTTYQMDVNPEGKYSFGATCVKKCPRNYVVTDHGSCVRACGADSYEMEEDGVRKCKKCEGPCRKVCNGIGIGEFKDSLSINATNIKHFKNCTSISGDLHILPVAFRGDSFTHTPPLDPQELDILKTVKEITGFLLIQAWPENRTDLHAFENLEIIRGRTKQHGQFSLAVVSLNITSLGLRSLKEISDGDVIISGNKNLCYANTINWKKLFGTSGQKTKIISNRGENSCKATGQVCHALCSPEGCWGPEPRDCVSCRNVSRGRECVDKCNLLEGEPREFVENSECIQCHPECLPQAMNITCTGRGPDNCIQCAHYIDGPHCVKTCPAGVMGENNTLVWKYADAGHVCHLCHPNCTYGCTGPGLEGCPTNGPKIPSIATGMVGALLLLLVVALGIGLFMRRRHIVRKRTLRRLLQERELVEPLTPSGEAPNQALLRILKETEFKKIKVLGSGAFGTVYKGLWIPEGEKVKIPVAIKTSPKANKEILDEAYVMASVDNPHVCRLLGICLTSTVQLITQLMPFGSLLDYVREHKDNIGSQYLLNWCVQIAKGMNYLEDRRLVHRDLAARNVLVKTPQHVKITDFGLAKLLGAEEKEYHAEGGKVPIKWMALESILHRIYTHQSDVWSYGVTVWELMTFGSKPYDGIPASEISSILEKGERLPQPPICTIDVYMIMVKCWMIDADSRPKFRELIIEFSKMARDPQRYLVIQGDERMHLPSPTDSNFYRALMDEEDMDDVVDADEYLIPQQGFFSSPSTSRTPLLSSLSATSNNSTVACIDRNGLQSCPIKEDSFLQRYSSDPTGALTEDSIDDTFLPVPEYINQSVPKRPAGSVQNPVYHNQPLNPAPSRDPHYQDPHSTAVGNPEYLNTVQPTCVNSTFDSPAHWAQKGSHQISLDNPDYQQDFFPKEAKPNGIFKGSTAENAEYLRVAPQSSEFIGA
Outline: as §1

EGFR^L858R = EGFR^L858R (Homo sapiens, UniProt P00533, L858R); assay: in vitro kinase assay (HTRF KinEASE-TK kit), L; type: biochemical; conditions: kinase inhibition
Excerpt: (§2) Assays using an in vitro kinase assay kit (HTRF KinEASE-TK kit) can be used to study the inhibitory activity of compounds described herein with respect to EGFR mutants such as EGFR^L858R, EGFR^L58R/T790M, and EGFR^L858R/T790M/C^797S.

Ba/F3 EGFR-Del19/T790M = Ba/F3 EGFR-Del19/T790M (Homo sapiens, UniProt P00533, T790M, cells depend on it, form not given); assay: Ba/F3 viability assay (CellTiter-Glo), DT; type: cell-based; conditions: anti-proliferation, read-out: BaF3 DT IC50
Sequence of Ba/F3 EGFR-Del19/T790M (P00533 with tags, fused parts or gaps DEL746-750/T790M, form open): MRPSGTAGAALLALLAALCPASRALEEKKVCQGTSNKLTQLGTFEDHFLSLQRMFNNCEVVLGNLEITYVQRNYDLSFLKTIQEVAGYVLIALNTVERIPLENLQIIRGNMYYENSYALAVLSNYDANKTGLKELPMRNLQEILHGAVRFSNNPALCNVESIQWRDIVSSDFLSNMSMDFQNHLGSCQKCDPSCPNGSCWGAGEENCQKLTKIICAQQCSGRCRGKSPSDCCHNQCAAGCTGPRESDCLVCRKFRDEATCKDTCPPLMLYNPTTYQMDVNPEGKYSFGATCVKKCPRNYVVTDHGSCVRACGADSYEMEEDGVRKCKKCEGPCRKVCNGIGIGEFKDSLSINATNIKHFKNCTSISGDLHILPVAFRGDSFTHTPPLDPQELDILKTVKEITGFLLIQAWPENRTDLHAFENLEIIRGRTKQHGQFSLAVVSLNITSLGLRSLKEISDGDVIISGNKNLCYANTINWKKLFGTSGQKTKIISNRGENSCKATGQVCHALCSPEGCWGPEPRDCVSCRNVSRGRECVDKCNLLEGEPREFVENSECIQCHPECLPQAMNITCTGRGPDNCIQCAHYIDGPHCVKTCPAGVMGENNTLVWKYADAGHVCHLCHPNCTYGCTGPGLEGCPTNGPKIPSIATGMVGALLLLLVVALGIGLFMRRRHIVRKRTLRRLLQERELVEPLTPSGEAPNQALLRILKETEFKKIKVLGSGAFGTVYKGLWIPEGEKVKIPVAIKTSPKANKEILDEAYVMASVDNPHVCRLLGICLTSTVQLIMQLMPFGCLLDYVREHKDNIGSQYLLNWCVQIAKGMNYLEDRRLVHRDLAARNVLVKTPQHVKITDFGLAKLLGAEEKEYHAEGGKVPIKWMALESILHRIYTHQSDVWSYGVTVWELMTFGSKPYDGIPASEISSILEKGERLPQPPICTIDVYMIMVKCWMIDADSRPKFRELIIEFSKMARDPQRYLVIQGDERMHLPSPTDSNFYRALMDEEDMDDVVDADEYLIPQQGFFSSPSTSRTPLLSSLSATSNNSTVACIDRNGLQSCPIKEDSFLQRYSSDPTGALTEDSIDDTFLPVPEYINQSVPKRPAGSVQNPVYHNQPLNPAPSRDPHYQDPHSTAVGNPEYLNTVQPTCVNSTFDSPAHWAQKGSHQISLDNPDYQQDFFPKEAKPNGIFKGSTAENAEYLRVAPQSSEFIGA
Outline: as §1

EGFR^L858R/T790M/C^797S = EGFR^L858R/T790M/C^797S (Homo sapiens, UniProt P00533, C797S/L858R/T790M); assay: in vitro kinase assay (HTRF KinEASE-TK kit), LTC; type: biochemical; conditions: kinase inhibition
Sequence of EGFR^L858R/T790M/C^797S (P00533 25-1210 T790M/C797S/L858R): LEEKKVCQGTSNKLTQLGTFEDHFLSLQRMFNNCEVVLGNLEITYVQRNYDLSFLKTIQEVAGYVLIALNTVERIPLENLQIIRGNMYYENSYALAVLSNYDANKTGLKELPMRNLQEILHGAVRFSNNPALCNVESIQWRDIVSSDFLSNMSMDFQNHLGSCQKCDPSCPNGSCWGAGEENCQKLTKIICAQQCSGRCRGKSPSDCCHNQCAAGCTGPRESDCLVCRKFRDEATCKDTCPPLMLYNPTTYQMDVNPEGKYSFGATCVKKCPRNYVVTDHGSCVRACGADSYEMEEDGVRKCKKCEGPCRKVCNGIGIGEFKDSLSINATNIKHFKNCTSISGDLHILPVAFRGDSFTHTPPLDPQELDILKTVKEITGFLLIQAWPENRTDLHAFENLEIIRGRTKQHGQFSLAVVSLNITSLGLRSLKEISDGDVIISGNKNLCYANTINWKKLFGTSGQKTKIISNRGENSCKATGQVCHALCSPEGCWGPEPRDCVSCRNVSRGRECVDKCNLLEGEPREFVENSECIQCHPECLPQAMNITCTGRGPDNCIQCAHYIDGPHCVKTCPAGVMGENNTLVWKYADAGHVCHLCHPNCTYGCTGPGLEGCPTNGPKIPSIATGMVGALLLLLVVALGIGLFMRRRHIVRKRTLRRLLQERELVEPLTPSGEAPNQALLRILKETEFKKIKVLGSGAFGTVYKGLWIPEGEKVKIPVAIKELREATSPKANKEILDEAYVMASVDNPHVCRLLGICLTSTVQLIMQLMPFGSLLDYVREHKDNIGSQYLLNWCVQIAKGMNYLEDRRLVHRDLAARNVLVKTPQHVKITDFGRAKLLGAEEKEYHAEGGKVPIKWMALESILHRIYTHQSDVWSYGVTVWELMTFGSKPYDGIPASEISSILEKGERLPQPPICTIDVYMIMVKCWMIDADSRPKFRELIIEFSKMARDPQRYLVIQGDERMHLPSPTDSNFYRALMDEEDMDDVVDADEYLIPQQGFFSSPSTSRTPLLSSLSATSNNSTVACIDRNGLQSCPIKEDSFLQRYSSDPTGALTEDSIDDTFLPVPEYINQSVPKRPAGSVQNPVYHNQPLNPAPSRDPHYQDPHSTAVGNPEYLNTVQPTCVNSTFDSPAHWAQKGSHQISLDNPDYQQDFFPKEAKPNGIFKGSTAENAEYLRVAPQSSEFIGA
Excerpt: as §2

EGFR^L58R/T790M = EGFR^L58R/T790M (Homo sapiens, UniProt P00533, L858R/T790M); assay: in vitro kinase assay (HTRF KinEASE-TK kit), LT; type: biochemical; conditions: kinase inhibition
Excerpt: as §2

[1] = biological target: Ba/F3 EGFR-Del19/T790M/C797S (Homo sapiens, UniProt P00533, T790M/C797S, cells depend on it, form not given); assay: Ba/F3 viability assay (CellTiter-Glo), DTC; type: cell-based; conditions: anti-proliferation, read-out: BaF3 DTC IC50
Sequence of Ba/F3 EGFR-Del19/T790M/C797S (P00533 with tags, fused parts or gaps DEL746-750/T790M/C797S, form open): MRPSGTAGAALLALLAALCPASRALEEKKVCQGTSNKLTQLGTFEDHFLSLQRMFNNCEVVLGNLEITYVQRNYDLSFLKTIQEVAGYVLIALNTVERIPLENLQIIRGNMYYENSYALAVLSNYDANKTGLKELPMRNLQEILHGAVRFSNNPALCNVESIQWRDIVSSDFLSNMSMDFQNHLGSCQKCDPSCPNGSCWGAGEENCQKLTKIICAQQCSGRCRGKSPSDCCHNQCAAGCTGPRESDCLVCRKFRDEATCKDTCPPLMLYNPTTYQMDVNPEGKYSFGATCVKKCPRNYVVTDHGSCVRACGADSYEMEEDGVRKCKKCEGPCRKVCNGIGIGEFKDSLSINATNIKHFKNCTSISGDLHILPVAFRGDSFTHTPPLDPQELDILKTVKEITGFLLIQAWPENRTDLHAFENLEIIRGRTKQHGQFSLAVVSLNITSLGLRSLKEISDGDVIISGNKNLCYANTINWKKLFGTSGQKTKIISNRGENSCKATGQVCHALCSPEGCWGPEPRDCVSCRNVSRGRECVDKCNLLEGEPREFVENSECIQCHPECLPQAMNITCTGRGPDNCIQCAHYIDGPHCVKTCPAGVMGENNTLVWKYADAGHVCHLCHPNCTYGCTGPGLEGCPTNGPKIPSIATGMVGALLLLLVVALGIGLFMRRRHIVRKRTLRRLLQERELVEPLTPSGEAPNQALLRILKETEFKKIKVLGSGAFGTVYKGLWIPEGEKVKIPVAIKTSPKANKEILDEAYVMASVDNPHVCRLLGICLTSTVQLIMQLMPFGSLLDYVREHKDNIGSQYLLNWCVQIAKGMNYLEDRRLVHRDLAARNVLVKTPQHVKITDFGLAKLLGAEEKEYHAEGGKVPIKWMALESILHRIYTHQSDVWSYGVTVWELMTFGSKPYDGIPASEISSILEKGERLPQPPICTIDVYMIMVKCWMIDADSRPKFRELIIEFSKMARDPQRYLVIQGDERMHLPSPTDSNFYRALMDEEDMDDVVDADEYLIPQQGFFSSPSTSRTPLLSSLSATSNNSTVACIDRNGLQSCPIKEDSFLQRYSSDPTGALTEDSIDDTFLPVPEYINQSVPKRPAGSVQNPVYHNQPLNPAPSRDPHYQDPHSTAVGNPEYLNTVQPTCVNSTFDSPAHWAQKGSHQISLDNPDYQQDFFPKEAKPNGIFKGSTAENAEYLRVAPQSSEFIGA
Outline: as §1

Row | SMILES | IC50 (Ba/F3 Parental) | GI50 (Ba/F3 EGFR-Del19/C797S) | IC50 (EGFR^L858R) | GI50 (Ba/F3 EGFR-Del19/T790M) | IC50 (EGFR^L858R/T790M/C^797S) | IC50 (EGFR^L58R/T790M) | GI50 [1]
1 | C[C@H]1CCOc2c(cnn2C)-c2nccc(n2)Nc2cc3c(cn2)c(-c2ccc(CN4CCOCC4)o2)nn31 [(164)] | 100 to 1000 nM | 10 to 100 nM | < 10 nM | < 10 nM | < 10 nM | < 10 nM | < 10 nM
2 | C[C@H]1CCOc2c(cnn2C)-c2nccc(n2)Nc2cc3c(cn2)c(-c2cccc(CN(C)C)c2)nn31 [(165)] | 100 to 1000 nM | < 10 nM | < 10 nM | < 10 nM | < 10 nM | < 10 nM | < 10 nM
3 | C[C@H]1CCOc2c(cnn2C)-c2nccc(n2)Nc2cc3c(cn2)c(-c2cccc(N4CC[C@@H](N(C)C)C4)c2)nn31 [(166)] | 100 to 1000 nM | < 10 nM | < 10 nM | < 10 nM | < 10 nM | < 10 nM | < 10 nM
4 | C[C@H]1CCOc2c(cnn2C)-c2nccc(n2)Nc2cc3c(cn2)c(-c2cccc(N4CC[C@H](N(C)C)C4)c2)nn31 [(167)] | 100 to 1000 nM | < 10 nM | < 10 nM | < 10 nM | < 10 nM | < 10 nM | < 10 nM
5 | Cc1cc(-c2nn3c4cc(ncc24)Nc2ccnc(n2)-c2cnn(C)c2OCC[C@@H]3C)oc1CN(C)C [(168)] | 100 to 1000 nM | < 10 nM | < 10 nM | < 10 nM | < 10 nM | < 10 nM | < 10 nM
6 | C[C@H]1CCOc2c(cnn2C)-c2nccc(n2)Nc2cc3c(cn2)c(N2CC[C@H](CN(C)CCF)C2)nn31 [(169)] | 100 to 1000 nM | < 10 nM | < 10 nM | < 10 nM | < 10 nM | < 10 nM | < 10 nM
7 | C[C@H]1CCOc2c(cnn2C)-c2nccc(n2)Nc2cc3c(cn2)c(N2CC[C@H](N(C)CCF)C2)nn31 [(170)] | 100 to 1000 nM | 10 to 100 nM | < 10 nM | 10 to 100 nM | < 10 nM | < 10 nM | < 10 nM
8 | Cc1nc(-c2nn3c4cc(ncc24)Nc2ccnc(n2)-c2cnn(C)c2OCC[C@@H]3C)sc1CN(C)C [(171)] | 100 to 1000 nM | 10 to 100 nM | < 10 nM | 10 to 100 nM | < 10 nM | < 10 nM | 10 to 100 nM
9 | C[C@H]1CCOc2c(cnn2C)-c2nccc(n2)Nc2cc3c(cn2)c(-c2ccc(CN4CCN(C)CC4)cc2)nn31 [(172)] | 10 to 100 nM | < 10 nM | < 10 nM | < 10 nM | < 10 nM | < 10 nM | < 10 nM
10 | C[C@H]1CCOc2c(cnn2C)-c2nccc(n2)Nc2cc3c(cn2)c(-c2cccc(N4CCC(N5CCN(C)CC5)CC4)c2)nn31 [(173)] | 100 to 1000 nM | < 10 nM | < 10 nM | < 10 nM | < 10 nM | < 10 nM | < 10 nM
11 | Cc1nc(-c2nn3c4cc(ncc24)Nc2ccnc(n2)-c2cnn(C)c2OCC[C@@H]3C)sc1CN1CCOCC1 [(174)] | 100 to 1000 nM | < 10 nM | < 10 nM | < 10 nM | < 10 nM | < 10 nM | < 10 nM
12 | C[C@H]1CCOc2c(cnn2C)-c2nccc(n2)Nc2cc3c(cn2)c(N2CC[C@@H](CN(C)CCF)C2)nn31 [(175)] | 10 to 100 nM | < 10 nM | < 10 nM | < 10 nM | < 10 nM | < 10 nM | < 10 nM
13 | C[C@H]1CCOc2c(cnn2C)-c2nccc(n2)Nc2cc3c(cn2)c(-c2ccc(CN(C)C)cc2)nn31 [(176)] | 100 to 1000 nM | 10 to 100 nM | < 10 nM | < 10 nM | < 10 nM | < 10 nM | < 10 nM
14 | C[C@H]1CCOc2c(cnn2C)-c2nccc(n2)Nc2cc3c(cn2)c(-c2cccc(CN4CCOCC4)c2)nn31 [(177)] | 100 to 1000 nM | 10 to 100 nM | 10 to 100 nM | 10 to 100 nM | < 10 nM | < 10 nM | < 10 nM
